Values quoted from earlier work in patent US20230320987A1, “LIPID NANOPARTICLES AND LIPOSOMES” (National Health Research Institutes, priority 2022, published 2023).

Assays:
[1] = after subcutaneous injection into a human body

half-life [1]: less than one
water solubility: high
Structure (SMILES): Cc1cc(NC2CCN(C(=O)CCNCC(=O)O)CC2)nc(NCc2nc(CCCNCCCNC3CCCCC3)co2)n1 [CX-1, (3-{4-[2-({4-[3-(3-cyclohexylaminopropylamino)propyl]oxazol-2-ylmethyl}amino)-6-methyl-pyrimidin-4-ylamino]piperidin-1-yl}-3-oxopropylamino)acetic acid]
